Experiment: log P by HPLC
Assay type: physicochemical
Settings: EEC directive 79/831 Annex V. A8 by HPLC (gradient method, acetonitrile/0.1% aqueous phosphoric acid)

Structure (SMILES) | logP
Cc1nc2nc(Cl)c(-c3ccccc3F)c(NC3CCCC3)n2n1 [compound 385] | 3.11
Cc1nc2nc(Cl)c(-c3ccccc3Cl)c(NC(C)C(F)(F)F)n2n1 (stereo not drawn) [compound 437] | 3.1
Cc1nc2nc(Cl)c(-c3c(F)cccc3F)c(N(C)CC3OCCO3)n2n1 [compound 332] | 2.43
Cc1nc2nc(Cl)c(-c3c(F)cccc3F)c(NC3CCCCC3C(F)(F)F)n2n1 (stereo not drawn) [compound 425] | 3.52
Cc1nc2nc(Cl)c(-c3ccc(F)cc3F)c(N3CCOCC3)n2n1 [compound 296] | 2.3
Cc1nc2nc(Cl)c(-c3c(F)cccc3F)c(N3CC(C)CC(C)C3)n2n1 (stereo not drawn) [compound 310] | 4.08
Cc1nc2nc(Cl)c(-c3ccccc3F)c(NCC(F)(F)F)n2n1 [compound 391] | 2.53
CCCN(CC1CC1)c1c(-c2ccc(F)cc2F)c(Cl)nc2nc(C)nn12 [compound 356] | 3.91
CONc1c(-c2ccccc2F)c(Cl)nc2nc(C)nn12 [compound 376] | 2.03
Cc1nc2nc(Cl)c(-c3c(F)cccc3F)c(NOCc3ccc(Cl)cc3Cl)n2n1 [compound 429] | 3.69
Cc1nc2nc(Cl)c(-c3c(F)cccc3Cl)c(NCC3CC3)n2n1 [compound 263] | 2.95
Cc1nc2nc(Cl)c(-c3ccc(F)cc3F)c(N3CCSCC3)n2n1 [compound 297] | 2.97
CC1CCN(c2c(-c3c(F)cc(F)cc3F)c(Cl)nc3nc(C4CC4)nn23)CC1 [compound 473] | 4.66
Cc1nc2nc(Cl)c(-c3c(F)cccc3F)c(N3CCC(O)C3)n2n1 (stereo not drawn) [compound 303] | 1.73
Cc1nc2nc(Cl)c(-c3ccc(F)cc3F)c(N3CCC(O)C3)n2n1 (stereo not drawn) [compound 415] | 1.95
CC(C)(C)OC(=O)NC1CCN(c2c(-c3ccc(F)cc3F)c(Cl)nc3nc(C4CC4)nn23)CC1 [compound 514] | 3.78
CCN(Cc1ccco1)c1c(-c2ccc(F)cc2F)c(Cl)nc2nc(C)nn12 [compound 354] | 3.39
CC(=O)NC1CCN(c2c(-c3ccc(F)cc3F)c(Cl)nc3nc(C)nn23)CC1 [compound 294] | 1.85
Cc1nc2nc(Cl)c(-c3ccc(F)cc3F)c(N3CCCC(C)C3)n2n1 (stereo not drawn) [compound 286] | 3.74
Cc1nc2nc(Cl)c(-c3ccc(F)cc3F)c(N3CC(C)OC(C)C3)n2n1 (stereo not drawn) [compound 455] | 2.94
C[C@H](Nc1c(-c2ccc(F)cc2F)c(Cl)nc2nc(C3CC3)nn12)C(F)(F)F (single isomer, unassigned) [compound 490] | 3.52
Cc1nc2nc(Cl)c(-c3ccccc3F)c(NC3CCCCC3C(F)(F)F)n2n1 (stereo not drawn) [compound 398] | 3.49
CCNc1c(-c2c(F)cccc2F)c(Cl)nc2nc(C)nn12 [compound 419] | 2.31
C=C(C)CN(CC)c1c(-c2ccc(F)cc2F)c(Cl)nc2nc(C3CC3)nn12 [compound 491] | 4.37
Cc1nc2nc(Cl)c(-c3ccc(F)cc3F)c(N3CC(C)CC(C)C3)n2n1 (stereo not drawn) [compound 451] | 4.16

Same assay, conditions: HPLC

Structure (SMILES) | chromatographic logP
Oc1nc2nc(C(F)(F)F)nn2c(O)c1-c1c(F)cc(F)cc1F [Example 832, 2-trifluoromethyl-6-(2,4,6-trifluoro-phenyl)-[1,2,4]triazolo[1,5-a]pyrimidine-5,7-diol] | 0.81

Same assay, conditions: HPLC, gradient method, acetonitrile/0.1% aqueous phosphoric acid; EEC directive 79/831 Annex V. A8

Structure (SMILES) | logP
CC1C=CC(C)N1c1c(-c2c(F)cc(F)cc2F)c(Cl)nc2nc(C3CC3)nn12 (stereo not drawn) [compound 582] | 4.17
CC(C)CN(C)c1c(-c2ccc(F)cc2F)c(Cl)nc2nc(C3CC3)nn12 [compound 668] | 4.07
CCc1nc2nc(Cl)c(-c3c(F)cc(F)cc3F)c(NCC#N)n2n1 [compound 23] | 2.27
Fc1cc(F)c(-c2c(Cl)nc3nc(C4CC4)nn3c2N2CC=CCO2)c(F)c1 [compound 786] | 3.56
COCCN(C)c1c(-c2ccc(F)cc2F)c(Cl)nc2nc(C3CC3)nn12 [compound 669] | 3.16
CCOC(=O)CN(c1c(-c2ccc(F)cc2F)c(Cl)nc2nc(C3CC3)nn12)C1CC1 [compound 727] | 3.84
CC1CN(c2c(-c3c(F)cc(F)cc3F)c(Cl)nc3nc(C(F)(F)F)nn23)CC(C)O1 (stereo not drawn) [compound 101] | 4.18
CCN(CCOC)c1c(-c2ccc(F)cc2F)c(Cl)nc2nc(C3CC3)nn12 [compound 594] | 3.46
CN(CC#N)c1c(-c2ccc(F)cc2F)c(Cl)nc2nc(C3CC3)nn12 [compound 719] | 2.79
CCCCNc1c(-c2ccc(F)cc2F)c(Cl)nc2nc(C(F)(F)F)nn12 [compound 526] | 4.07
Fc1ccc(-c2c(Cl)nc3nc(C4CC4)nn3c2NC2CCCC(C(F)(F)F)C2)c(F)c1 (stereo not drawn) [compound 658] | 3.98
CC1(C)CCN(c2c(-c3ccc(F)cc3F)c(Cl)nc3nc(C(F)(F)F)nn23)CC1 [compound 800] | 5.03
CCNc1c(-c2c(F)cc(F)cc2F)c(Cl)nc2nc(C(F)(F)F)nn12 [compound 102] | 3.5
N#CCNc1c(-c2c(F)cc(F)cc2F)c(Cl)nc2nc(C(F)(F)F)nn12 [compound 24] | 2.91
Cc1nc2nc(Cl)c(-c3c(F)cc(F)cc3F)c(N3CCCCN3)n2n1 [compound 692] | 2.83
CC(C)CNc1c(-c2ccc(F)cc2Cl)c(Cl)nc2nc(C3CC3)nn12 [compound 621] | 3.9
CN1CCN(c2c(-c3ccc(F)cc3F)c(Cl)nc3nc(C4CC4)nn23)CC1 [compound 735] | 1.43
N#CCNc1c(-c2ccc(F)cc2F)c(Cl)nc2nc(C3CC3)nn12 [compound 713] | 2.42
CC1CC(C)CN(c2c(-c3ccc(F)cc3F)c(Cl)nc3nc(C(F)(F)F)nn23)C1 (stereo not drawn) [compound 797] | 5.18
Cc1nc2nc(Cl)c(-c3c(F)cc(F)cc3F)c(NCC3CC3)n2n1 [compound 68] | 2.86
CC(C)CNc1c(-c2ccc(F)cc2F)c(Cl)nc2nc(C3CC3)nn12 [compound 644] | 3.38
CC(C)C(C)Nc1c(-c2ccccc2Cl)c(Cl)nc2nc(C3CC3)nn12 (stereo not drawn) [compound 579] | 4.14
Cc1nc2nc(Cl)c(-c3c(F)cc(F)cc3F)c(N3CCC(O)C3)n2n1 (stereo not drawn) [compound 98] | 1.85
Cc1nc2nc(Cl)c(-c3c(F)cccc3F)c(N(C)CCN(C)C)n2n1 [compound 561] | 1.28
Cc1nc2nc(Cl)c(-c3c(F)cccc3F)c(N(C)CCC#N)n2n1 [compound 563] | 2.17
CC(C)CN(C)c1c(-c2ccc(F)cc2F)c(Cl)nc2nc(C(F)(F)F)nn12 [compound 544] | 4.54
Fc1cccc(Cl)c1-c1c(Cl)nc2nc(C3CC3)nn2c1N1CCCCC1 [compound 708] | 4.19
CCN(CCOC)c1c(-c2ccc(F)cc2Cl)c(Cl)nc2nc(C3CC3)nn12 [compound 631] | 3.81

Structure (SMILES) | logP
Cc1nc2nc(Cl)c(-c3ccccc3Cl)c(N3CCCC3)n2n1 [compound 227] | 0.75
Cc1nc2nc(Cl)c(-c3ccccc3Cl)c(N3CCOCC3)n2n1 [compound 234] | 2.38
Cc1nc2nc(Cl)c(-c3c(F)cc(F)cc3F)c(N3CCCCO3)n2n1 [compound 574] | 3.07
CN(CCC#N)c1c(-c2ccc(F)cc2F)c(Cl)nc2nc(C3CC3)nn12 [compound 718] | 2.79
C=C(C)CN(CC)c1c(-c2ccc(Cl)cc2Cl)c(Cl)nc2nc(C3CC3)nn12 [compound 769] | 5.25
CCN(Cc1ccco1)c1c(-c2ccc(F)cc2F)c(Cl)nc2nc(C3CC3)nn12 [compound 592] | 3.97
CCCN(CC1CCCCO1)c1c(-c2ccc(F)cc2F)c(Cl)nc2nc(C3CC3)nn12 (stereo not drawn) [compound 599] | 4.71
CC(Nc1c(-c2ccc(F)cc2Cl)c(Cl)nc2nc(C3CC3)nn12)C(F)(F)F (racemic) [compound 747] | 3.73
CN(C)C1CCN(c2c(-c3ccc(F)cc3F)c(Cl)nc3nc(C(F)(F)F)nn23)C1 (stereo not drawn) [compound 795] | 1.67
CCCN(Cc1cccs1)c1c(-c2ccc(F)cc2F)c(Cl)nc2nc(C3CC3)nn12 [compound 601] | 4.64
CC(C)Nc1c(-c2ccc(F)cc2F)c(Cl)nc2nc(C3CC3)nn12 [compound 651] | 3.2
Cc1nc2nc(Cl)c(-c3c(F)cccc3F)c(NC(C)C(C)C)n2n1 (stereo not drawn) [compound 684] | 3.18
Cc1nc2nc(Cl)c(-c3c(F)cc(F)cc3F)c(N3OCCC3C)n2n1 (stereo not drawn) [compound 585] | 2.93
CCCCN(C)c1c(-c2ccc(F)cc2F)c(Cl)nc2nc(C3CC3)nn12 [compound 671] | 4.21
C=C(C)CNc1c(-c2c(F)cccc2F)c(Cl)nc2nc(C3CC3)nn12 [compound 760] | 3.28
CCCN(CCOC)c1c(-c2ccc(F)cc2F)c(Cl)nc2nc(C3CC3)nn12 [compound 602] | 3.84
CCCCN(CC)c1c(-c2ccccc2Cl)c(Cl)nc2nc(C)nn12 [compound 247] | 4.18
CCCN(CC1CCCO1)c1c(-c2c(F)cc(F)cc2F)c(Cl)nc2nc(C)nn12 (stereo not drawn) [compound 163] | 3.68
CCCNc1c(-c2c(F)cc(F)cc2F)c(Cl)nc2nc(CC)nn12 [compound 74] | 3.14
CCCCN(CC)c1c(-c2ccc(F)cc2F)c(Cl)nc2nc(C3CC3)nn12 [compound 596] | 4.52
CC(C)CC(C)Nc1c(-c2ccc(F)cc2F)c(Cl)nc2nc(C(F)(F)F)nn12 (stereo not drawn) [compound 818] | 4.73
Fc1ccc(Nc2c(-c3ccc(F)cc3F)c(Cl)nc3nc(C(F)(F)F)nn23)cc1 [compound 814] | 3.69
Cc1nc2nc(Cl)c(-c3c(F)cccc3Cl)c(NC3CC3)n2n1 [compound 258] | 2.77
C=C(C)CN(CC)c1c(-c2ccc(F)cc2Cl)c(Cl)nc2nc(C3CC3)nn12 [compound 630] | 4.77
Cc1nc2nc(Cl)c(-c3ccc(F)cc3F)c(N(C)CC(C)C)n2n1 [compound 205] | 3.49
Cc1nc2nc(Cl)c(-c3ccccc3Cl)c(N3CCC(C(F)(F)F)CC3)n2n1 [compound 232] | 3.63
Cc1nc2nc(Cl)c(-c3c(F)cccc3F)c(NOC3CCCCO3)n2n1 (stereo not drawn) [compound 142] | 2.54

From patent US7186831B2, “5-halo-2-alkyl[1,2,4]triazolo[1,5-a]pyrimidin-7-amines” (priority 2001, dated 2007)
